Literature values in US10034966B2, “Coated vaso-occlusive device and methods for treatment of aneurysms” (Carnegie Mellon University, priority 2013, dated 2018).

Tested on: L929 fibroblasts

SMILES: COC(=O)C1=CO[C@@H](O)[C@@H]2C(CO)=CC[C@H]12 [genipin, methyl (1S,2R,6S)-2-hydroxy-9-(hydroxymethyl)-3-oxabicyclo[4.3.0]nona-4,8-diene-5-carboxylate]
- cell death to L929 fibroblasts (exposures of 5 mM and 10 mM): can cause cell death
- cytotoxicity, cell samples compared with controls (incubated in 1 mM): indistinguishable from controls
